How the values were obtained:
Assay in all cases: Kinase inhibitor library screening, PrestoBlue cell viability, 1 or 10 μM, 72 h
[1] = test system: 501Mel-GP cells (Dabrafenib-resistant); conditions: 501Mel GP
A375 cells (parental) = conditions: A375 Parental
[2] = test system: A375-GP cells (Dabrafenib-resistant); conditions: A375 GP
[3] = test system: A375-XP cells (Vemurafenib-resistant); conditions: A375 XP
[4] = test system: 501Mel-XP cells (Vemurafenib-resistant); conditions: 501Mel XP
[5] = test system: IGR37-XP cells (Vemurafenib-resistant); conditions: IGR37 XP
[6] = test system: IGR37-GP cells (Dabrafenib-resistant); conditions: IGR37 GP
IGR37 cells (parental) = conditions: IGR37 Parental
501Mel cells (parental) = conditions: 501Mel Parental
Method in brief: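 Cells are treated with each inhibitor at 1 or 10 μM, incubated 72 h, then PrestoBlue reagent is added and the plate is read. Data are normalised to untreated cells.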

## CCN1CCN(Cc2ccc(-c3cc4c(N[C@H](C)c5ccccc5)ncnc4[nH]3)cc2)CC1 [AEE788 (NVP-AEE788)]
[1]; 1μΜ, 72 h, in %
  cell viability, 501Mel GP, 1μΜ: 114.3
[1]; 10μΜ, 72 h, in %
  cell viability, 501Mel GP, 10μΜ: 1.2
A375 cells (parental); 1μΜ, 72 h, in %
  cell viability, A375 Parental, 1μΜ: 108.2
A375 cells (parental); 10μΜ, 72 h, in %
  cell viability, A375 Parental, 10μΜ: 70.3
[2]; 1μΜ, 72 h, in %
  cell viability, A375 GP, 1μΜ: 110.2
[2]; 10μΜ, 72 h, in %
  cell viability, A375 GP, 10μΜ: 49.2
[3]; 1μΜ, 72 h, in %
  cell viability, A375 XP, 1μΜ: 105.5
[3]; 10μΜ, 72 h, in %
  cell viability, A375 XP, 10μΜ: 70.7
[4]; 1μΜ, 72 h, in %
  cell viability, 501Mel XP, 1μΜ: 105.3
[4]; 10μΜ, 72 h, in %
  cell viability, 501Mel XP, 10μΜ: 0.239
[5]; 10μΜ, 72 h
  cell viability, IGR37 XP, 10μΜ: 25.4%
[5]; 1μΜ, 72 h, in %
  cell viability, IGR37 XP, 1μΜ: 82.4
[6]; 10μΜ, 72 h
  cell viability, IGR37 GP, 10μΜ: 82.6%
[6]; 1μΜ, 72 h, in %
  cell viability, IGR37 GP, 1μΜ: 94.0
IGR37 cells (parental); 10μΜ, 72 h, in %
  cell viability, IGR37 Parental, 10μΜ: 87.9
501Mel cells (parental); 1μΜ, 72 h, in %
  cell viability, 501Mel Parental, 1μΜ: 103.7
501Mel cells (parental); 10μΜ, 72 h, in %
  cell viability, 501Mel Parental, 10μΜ: 1.2

## Cc1[nH]c(/C=C2\C(=O)Nc3ccc(S(=O)(=O)N(C)c4cccc(Cl)c4)cc32)c(C)c1C(=O)N1CCN(C)CC1 [SU11274]
[1]; 1μΜ, 72 h
  cell viability (kinase inhibitor library screening): 111.1%
[1]; 10μΜ, 72 h
  cell viability (kinase inhibitor library screening): 33.6%
A375 cells (parental); 10μΜ, 72 h
  cell viability (kinase inhibitor library screening): 65.8%
A375 cells (parental); 1μΜ, 72 h
  cell viability (kinase inhibitor library screening): 112.5%
[2]; 1μΜ, 72 h
  cell viability (kinase inhibitor library screening): 104.3%
[2]; 10μΜ, 72 h
  cell viability (kinase inhibitor library screening): 46.3%
[3]; 1μΜ, 72 h
  cell viability (kinase inhibitor library screening): 111.1%
[3]; 10μΜ, 72 h
  cell viability (kinase inhibitor library screening): 22.4%
[4]; 1μΜ, 72 h
  cell viability (kinase inhibitor library screening): 92.2%
[4]; 10μΜ, 72 h
  cell viability (kinase inhibitor library screening): 0.0577%
[5]; 1μΜ, 72 h
  cell viability (kinase inhibitor library screening): 105.9%
[5]; 10μΜ, 72 h
  cell viability (kinase inhibitor library screening): 19.7%
[6]; 1μΜ, 72 h
  cell viability (kinase inhibitor library screening): 103.1%
[6]; 10μΜ, 72 h
  cell viability (kinase inhibitor library screening): 37.8%
IGR37 cells (parental); 1μΜ, 72 h
  cell viability (kinase inhibitor library screening): 117.2%
IGR37 cells (parental); 10μΜ, 72 h
  cell viability (kinase inhibitor library screening): 13.1%
501Mel cells (parental); 1μΜ, 72 h
  cell viability (kinase inhibitor library screening): 107.1%
501Mel cells (parental); 10μΜ, 72 h
  cell viability (kinase inhibitor library screening): 12.1%

## CCn1nnc2c(N3CCOCC3)nc(-c3ccc(NC(=O)Nc4ccc(C(=O)N5CCN(C)CC5)cc4)cc3)nc21 [PKI-402]
[1]; 1μΜ, 72 h, in %
  Cell viability in kinase inhibitor library screening, 501Mel GP, 1μΜ: 21.4
[1]; 10μΜ, 72 h, in %
  Cell viability in kinase inhibitor library screening, 501Mel GP, 10μΜ: 0.548
A375 cells (parental); 10μΜ, 72 h
  Cell viability in kinase inhibitor library screening, A375 Parental, 10μΜ: 12.7
A375 cells (parental); 1μΜ, 72 h
  Cell viability in kinase inhibitor library screening, A375 Parental, 1μΜ: 21.3
[2]; 1μΜ, 72 h
  Cell viability in kinase inhibitor library screening, A375 GP, 1μΜ: 23.7
[2]; 10μΜ, 72 h
  Cell viability in kinase inhibitor library screening, A375 GP, 10μΜ: 9.7
[3]; 1μΜ, 72 h
  Cell viability in kinase inhibitor library screening, A375 XP, 1μΜ: 20.0
[3]; 10μΜ, 72 h
  Cell viability in kinase inhibitor library screening, A375 XP, 10μΜ: 8.5
[4]; 1μΜ, 72 h, in %
  Cell viability in kinase inhibitor library screening, 501Mel XP, 1μΜ: 15.3
[4]; 10μΜ, 72 h, in %
  Cell viability in kinase inhibitor library screening, 501Mel XP, 10μΜ: -0.1
[5]; 10μΜ, 72 h
  Cell viability in kinase inhibitor library screening, IGR37 XP, 10μΜ: 1.9%
[5]; 1μΜ, 72 h, in %
  Cell viability in kinase inhibitor library screening, IGR37 XP, 1μΜ: 25.5
[6]; 10μΜ, 72 h
  Cell viability in kinase inhibitor library screening, IGR37 GP, 10μΜ: 3.4%
[6]; 1μΜ, 72 h, in %
  Cell viability in kinase inhibitor library screening, IGR37 GP, 1μΜ: 66.1
IGR37 cells (parental); 1μΜ, 72 h, in %
  Cell viability in kinase inhibitor library screening, IGR37 Parental, 1μΜ: 35.8
IGR37 cells (parental); 10μΜ, 72 h, in %
  Cell viability in kinase inhibitor library screening, IGR37 Parental, 10μΜ: 2.7
501Mel cells (parental); 1μΜ, 72 h, in %
  Cell viability in kinase inhibitor library screening, 501Mel Parental, 1μΜ: 15.4
501Mel cells (parental); 10μΜ, 72 h, in %
  Cell viability in kinase inhibitor library screening, 501Mel Parental, 10μΜ: 0.476

## CNC(=O)c1cc(Oc2ccc(NC(=O)Nc3ccc(Cl)c(C(F)(F)F)c3)cc2)ccn1 [Sorafenib (Nexavar)]
[1]; 1μΜ, in %
  cell viability (kinase inhibitor library screening): 104.7
A375 cells (parental); 10μΜ, in %
  cell viability (kinase inhibitor library screening): 44.5
[2]; 1μΜ, in %
  cell viability (kinase inhibitor library screening): 80.9
[2]; 10μΜ, in %
  cell viability (kinase inhibitor library screening): 22.0
[3]; 1μΜ, in %
  cell viability (kinase inhibitor library screening): 95.0
[3]; 10μΜ, in %
  cell viability (kinase inhibitor library screening): 16.4
[4]; 1μΜ, in %
  cell viability (kinase inhibitor library screening): 96.9
[4]; 10μΜ, in %
  cell viability (kinase inhibitor library screening): 23.2
[5]; 1μΜ, in %
  cell viability (kinase inhibitor library screening): 106.1
[5]; 10μΜ, in %
  cell viability (kinase inhibitor library screening): 16.7
[6]; 1μΜ, in %
  cell viability (kinase inhibitor library screening): 102.7
[6]; 10μΜ, in %
  cell viability (kinase inhibitor library screening): 41.3
IGR37 cells (parental); 1μΜ, in %
  cell viability (kinase inhibitor library screening): 96.8
IGR37 cells (parental); 10μΜ, in %
  cell viability (kinase inhibitor library screening): 60.6
501Mel cells (parental); 1μΜ, in %
  cell viability (kinase inhibitor library screening): 97.8
501Mel cells (parental); 10μΜ, in %
  cell viability (kinase inhibitor library screening): 53.0

— PMC6364417, “Kinase inhibitor library screening identifies synergistic drug combinations effective in sensitive and resistant melanoma cells” (Journal of Experimental & Clinical Cancer Research : CR, 2019)
